# In ChEMBL document CHEMBL1145708, “Selective cytotoxicity of ginkgetin from Selaginella moellendorffii” (J Nat Prod, 1997):
# The source made the active and inactive calls. The calls are words filed in the database; no cut-off is given here.
# Tests used:
# [1] = system: OVCAR-3; experiment: Growth inhibition of human OVCAR-3 cells upto 10 ug/ml after 48 hrs; type: functional, cell-based
# [2] = system: OVCAR-3; experiment: Growth inhibition of human OVCAR-3 cells after 48 hrs; type: functional, cell-based
# [3] = Growth inhibition of HEK cells; type: cell-based; conditions: human, hek293
# [4] = system: HeLa; experiment: Growth inhibition of human HeLa cells; type: functional, cell-based
# [5] = system: HepG2; experiment: Growth inhibition of human HepG2 cells; type: functional, cell-based
compound,measurement,setting,value
COc1ccc(-c2cc(=O)c3c(O)cc(O)c(-c4cc(-c5cc(=O)c6c(O)cc(O)cc6o5)ccc4O)c3o2)cc1,Activity,[1],inactive
COc1ccc(-c2cc(=O)c3c(O)cc(OC)c(-c4cc(-c5cc(=O)c6c(O)cc(O)cc6o5)ccc4OC)c3o2)cc1,Activity,[1],inactive
COc1ccc(-c2cc(=O)c3c(O)cc(OC)c(-c4cc(-c5cc(=O)c6c(O)cc(OC)cc6o5)ccc4OC)c3o2)cc1,Activity,[1],inactive
O=c1cc(-c2ccc(O)c(-c3c(O)cc(O)c4c(=O)cc(-c5ccc(O)cc5)oc34)c2)oc2cc(O)cc(O)c12,Activity,[1],inactive
COc1cc(O)c2c(=O)cc(-c3ccc(OC)c(-c4c(O)cc(O)c5c(=O)cc(-c6ccc(O)cc6)oc45)c3)oc2c1 [GINKGETIN],Activity,[2],Dose-dependent effect
same,IC50,"[2]; OVCAR-3, 48 h",1.8 µg/mL
same,Activity,[3],Not Active
same,Activity,[4],inactive
same,Activity,[5],inactive
